Experiments:
[1] = 101 kPa, Liquid
[2] = xn = mol fraction of the nth substance listed; conditions: 101 kPa, Liquid

CC(=O)OC(C)(C)C [1,1-dimethylethyl ethanoate]
[1]
Conditions	mass density [kg/m3]	speed of sound [m/s]
298.15 K	859.75	1091
303.15 K	853.94	1078
308.15 K	848.34	1049
313.15 K	842.67	1040

CC(=O)OC(C)(C)C [1,1-dimethylethyl ethanoate] + CO
[2]
Conditions	mass density, 298.15 K [kg/m3]	mass density, 303.15 K [kg/m3]	mass density, 308.15 K [kg/m3]	mass density, 313.15 K [kg/m3]	speed of sound, 298.15 K [m/s]	speed of sound, 303.15 K [m/s]	speed of sound, 308.15 K [m/s]	speed of sound, 313.15 K [m/s]
x1 = 0.1004	806.42	801.36	796.06	791.34	1107	1090	1069	1055
x1 = 0.1997	819.95	814.66	809.27	804.29	1105	1089	1065	1052
x1 = 0.2996	829.79	824.37	818.91	813.75	1105	1089	1063	1051
x1 = 0.3916	836.73	831.21	825.7	820.41	1104	1088	1061	1049
x1 = 0.5003	843.12	837.52	831.98	826.57	1103	1087	1059	1048
x1 = 0.5988	847.72	842.05	836.48	831	1102	1086	1057	1046
x1 = 0.6994	851.57	845.85	840.26	834.72	1100	1085	1055	1045
x1 = 0.7985	854.72	848.96	843.36	837.77	1097	1083	1053	1043
x1 = 0.8992	857.43	851.65	846.04	840.4	1094	1080	1051	1041
x1 = 1	859.75	853.94	848.34	842.67	1091	1078	1049	1040

CCCCOC(C)=O [butyl ethanoate]
[1]
Conditions	mass density [kg/m3]	speed of sound [m/s]
298.15 K	876.18	1190
303.15 K	871.27	1173
308.15 K	865.41	1150
313.15 K	860.46	1131

From the NIST ThermoML archive (doi:10.1021/je900442b)
